The supplement of paper PMC10331698
± gives the standard deviation of the averaged measurements.

Assays:
Assay in all cases: LOEC (log10 uM (lowest observed effect concentration))
[1] = compound: NS(=O)(=O)C(F)(F)C(F)(F)C(F)(F)C(F)(F)C(F)(F)C(F)(F)C(F)(F)C(F)(F)F [Perfluorooctanesulfonamide]
Procedure: (§1)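 BioMAP Diversity Plus panel in human primary cell co-cultures, 4 concentrations in duplicate blinded samples. Responses are log10 fold change versus DMSO control, processed with tcpl v2.1.0. A hit is called when responses at any concentration exceed the cutoff (the larger of 3*bmad or log10(1.2)); the lowest observed effect concentration (modl_ga, log10 uM) is reported for hits.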

Perfluoroundecanoic acid = compound: O=C(O)C(F)(F)C(F)(F)C(F)(F)C(F)(F)C(F)(F)C(F)(F)C(F)(F)C(F)(F)C(F)(F)C(F)(F)F [Perfluoroundecanoic acid]
Procedure: as §1

[2] = compound: O=C(O)C(F)(F)OC(F)(F)C(F)(F)OC(F)(F)C(F)(F)OC(F)(F)C(F)(F)C(F)(F)C(F)(F)F [Perfluoro-3,6,9-trioxatridecanoic acid]
Procedure: as §1

[3] = compound: CCNS(=O)(=O)C(F)(F)C(F)(F)C(F)(F)C(F)(F)C(F)(F)C(F)(F)C(F)(F)C(F)(F)F [N-Ethylperfluorooctanesulfonamide]
Procedure: as §1

Perfluorononanoic acid = compound: O=C(O)C(F)(F)C(F)(F)C(F)(F)C(F)(F)C(F)(F)C(F)(F)C(F)(F)C(F)(F)F [Perfluorononanoic acid]
Procedure: as §1

[4] = compound: O=C(O)C=C(C(F)(F)F)C(F)(F)F [3,3-Bis(trifluoromethyl)-2-propenoic acid]
Procedure: as §1

[5] = compound: OCC(F)(F)OC(F)(F)C(F)(F)OC(F)(F)C(F)(F)OC(F)(F)CO [1H,1H,11H,11H-Perfluorotetraethylene glycol]
Procedure: as §1

Test System	LOEC (log10 uM) [1]	LOEC (log10 uM) (Perfluoroundecanoic acid)	LOEC (log10 uM) [2]	LOEC (log10 uM) [3]	LOEC (log10 uM) (Perfluorononanoic acid)	LOEC (log10 uM) [4]	LOEC (log10 uM) [5]
KF3CT TIMP2 down	1.78	0.845	0.845	1.78			
4H VEGFRII down				1.78			
SAg CD69 down	1.54 ± 0.34	0.845	1.54 ± 0.34	1.3	1.78	1.78	
MyoF CollagenIII down	1.3	0.301	0.845	1.78	1.78		
3C TissueFactor down	1.78		1.3		1.78		
MyoF PAI1 down	1.78	0.845	1.07 ± 0.32	1.78			
3C VCAM1 down	1.78		1.78	1.78	1.78	1.54 ± 0.34	
LPS MCP1 down	1.78		1.54 ± 0.34	1.78	1.78		
hDFCGF ITAC down	0.845	0.845	0.845	0.845	1.78		1.3
BF4T MMP9 down	1.3	0.845	1.07 ± 0.32	1.54 ± 0.34	1.78		
BE3C Keratin818 down	1.78	0.845	0.845	0.845	1.78		
BF4T MMP1 down		0.845	1.3	1.78	1.78		
KF3CT uPA down	1.3	0.845	1.3	1.78			
3C HLADR down	1.54 ± 0.34		1.78		1.78	1.78	
3C IL8 down			1.3				
IMphg IL1a down			1.54 ± 0.34				
hDFCGF SRB down	1.78	0.845	0.845	1.54 ± 0.34			
LPS TissueFactor down	1.78		1.78				
hDFCGF CollagenIII down	1.3	0.845	0.845	0.845			
SAg PBMCCytotoxicity down	1.78		1.78				
SAg CD38 down	1.54 ± 0.34		1.78	1.78	1.78		
hDFCGF MCSF down	1.3	0.845	0.845	1.3			1.54 ± 0.34
hDFCGF IL8 down	1.3	0.845	1.3	1.78			
BE3C PAI1 down	0.845	-0.199 ± 0.71	0.573 ± 0.39	0.845	1.54 ± 0.34		
BF4T uPA down	1.78	0.845	1.3		1.78		
KF3CT ICAM1 down	1.78	0.845	1.3				
hDFCGF IP10 down	0.573 ± 0.39	0.301	0.845	0.845	1.78		1.3

Test System	LOEC (log10 uM) [1]	LOEC (log10 uM) (Perfluoroundecanoic acid)	LOEC (log10 uM) [2]	LOEC (log10 uM) [3]	LOEC (log10 uM) (Perfluorononanoic acid)	LOEC (log10 uM) [4]	LOEC (log10 uM) [5]
MyoF bFGF down	1.78	0.845	1.07 ± 0.32	1.78			
hDFCGF MCP1 down	1.3	0.573 ± 0.39	0.845	1.78			1.54 ± 0.34
LPS VCAM1 down	1.78		1.78		1.78	0.573 ± 0.39	
BT Bcell Proliferation up					1.78		
BT xIL17F down	1.78		1.78	1.54 ± 0.34		0.573 ± 0.39	1.78
hDFCGF TIMP1 down		0.845	1.07 ± 0.32	1.78			
SAg Proliferation down	1.78		1.78	1.78	1.78	1.78	
BT Bcell Proliferation down						1.78	
LPS MCSF down	1.78		1.78			1.31 ± 0.66	
BE3C ICAM1 down	1.78	0.845	0.845		1.78		
BF4T IL8 down	1.78				1.78		
SAg SRB down	1.78		1.78	1.78	1.78		
BE3C ITAC down	1.3	0.301	0.845	1.3	1.78		
hDFCGF EGFR down		0.301					
MyoF Decorin down		0.845	1.3	1.78			
KF3CT MCP1 down	1.78	0.845	0.845		0.801 ± 0.71		
BF4T VCAM1 down	1.3	0.845	0.845	0.845	1.07 ± 0.32		
BE3C MIG down	1.78	0.845	0.845	1.78	1.78		
MyoF IL8 down	1.78	0.845	1.78	1.78			
BF4T SRB down	1.78	0.845	1.3	1.78	1.78		
BF4T PAI1 down	1.78	0.845	1.3		1.78		
3C uPAR down	1.78		1.54 ± 0.34		1.78		
MyoF CollagenI down	1.3	0.301	0.845	1.78	1.54 ± 0.34		
3C Proliferation down	1.3	0.845	1.3	1.78	1.78		1.54 ± 0.34
3C Thrombomodulin up	1.3						
IMphg SRB down	1.78		1.78				
BE3C uPAR down	1.78	0.845	0.845	1.3	1.78		
